“And” between values parts separate entries of the source, which are not always exact repeats. Equal entries are not always repeated. “Also recorded” adds a separate entry of the source.
Assays:
[1] = tested on: MOLM-13 cells overexpressing FLAG-tagged CK1α G40N mutant; test: CK1α mutant rescue, CTG viability, FLAG-CK1α G40N MOLM-13; format: cell-based, human
Method: To evaluate the contribution of the CK1α degradation in SJ3149-mediated cytotoxicity, we utilized the degradation-resistant mutant CK1α G40N[41]. MOLM-13 cells were transduced with lentivirus to overexpress FLAG-tagged wild type CK1α or the G40N mutant, which removes the essential glycine in the CK1α degron G-loop.
The media was changed after cells rested in the 37 °C incubator overnight. […] As described above in the Molecular Glue Library Screening section, transduced MOLM-13 cells were seeded in 384-well plates at 1250 cells per well and allowed to rest overnight. 30 nl of CK1α degraders of interest were deposited on the cells using an Echo 650 acoustic liquid handler […]. […] This was done twice for a total of six technical replicates.

CK1α = CK1α (Homo sapiens, UniProt P48729+Q96SW2); test: In vivo PD: CK1α protein levels in MOLM-13 xenograft (western blot of human cells from bone marrow); design: quantified western blots of isolated human cells from the bone marrow of treated mice; endogenous in cells; host or cells: MOLM-13 xenograft cells from NSG mouse bone marrow, murine cells depleted; species or system NSG mice engrafted with MOLM-13 cells; conditions: for CK1a quantified western blot signal, group mean (Mean 2): n 3, DMSO mean 0.9882; for CK1a quantified western blot signal, individual animals: relative to DMSO; for CK1α protein level in vivo: 48 h
CK1α, sequence (P48729 whole entry): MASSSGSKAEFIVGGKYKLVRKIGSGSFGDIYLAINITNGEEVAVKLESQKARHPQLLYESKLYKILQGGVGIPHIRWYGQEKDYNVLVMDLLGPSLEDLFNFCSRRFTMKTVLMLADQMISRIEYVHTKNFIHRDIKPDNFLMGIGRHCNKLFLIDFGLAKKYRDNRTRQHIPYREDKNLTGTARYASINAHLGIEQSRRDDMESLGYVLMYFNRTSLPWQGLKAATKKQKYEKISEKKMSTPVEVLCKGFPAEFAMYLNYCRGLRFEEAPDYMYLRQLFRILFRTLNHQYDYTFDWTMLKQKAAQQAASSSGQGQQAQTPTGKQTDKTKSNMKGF
CK1α, sequence (Q96SW2 whole entry): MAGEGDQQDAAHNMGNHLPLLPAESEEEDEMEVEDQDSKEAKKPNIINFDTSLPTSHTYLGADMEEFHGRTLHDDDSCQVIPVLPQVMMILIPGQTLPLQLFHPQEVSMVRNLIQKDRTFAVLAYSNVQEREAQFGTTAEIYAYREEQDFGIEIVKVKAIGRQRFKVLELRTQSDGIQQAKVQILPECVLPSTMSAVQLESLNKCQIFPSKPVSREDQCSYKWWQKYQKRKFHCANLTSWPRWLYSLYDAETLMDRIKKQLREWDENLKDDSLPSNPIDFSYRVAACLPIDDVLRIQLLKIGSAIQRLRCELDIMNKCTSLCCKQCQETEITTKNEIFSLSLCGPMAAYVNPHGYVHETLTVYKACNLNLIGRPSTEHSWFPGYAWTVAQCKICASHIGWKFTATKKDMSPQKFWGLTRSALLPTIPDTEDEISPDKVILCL
CK1α, sequence (Q16531 whole entry partner): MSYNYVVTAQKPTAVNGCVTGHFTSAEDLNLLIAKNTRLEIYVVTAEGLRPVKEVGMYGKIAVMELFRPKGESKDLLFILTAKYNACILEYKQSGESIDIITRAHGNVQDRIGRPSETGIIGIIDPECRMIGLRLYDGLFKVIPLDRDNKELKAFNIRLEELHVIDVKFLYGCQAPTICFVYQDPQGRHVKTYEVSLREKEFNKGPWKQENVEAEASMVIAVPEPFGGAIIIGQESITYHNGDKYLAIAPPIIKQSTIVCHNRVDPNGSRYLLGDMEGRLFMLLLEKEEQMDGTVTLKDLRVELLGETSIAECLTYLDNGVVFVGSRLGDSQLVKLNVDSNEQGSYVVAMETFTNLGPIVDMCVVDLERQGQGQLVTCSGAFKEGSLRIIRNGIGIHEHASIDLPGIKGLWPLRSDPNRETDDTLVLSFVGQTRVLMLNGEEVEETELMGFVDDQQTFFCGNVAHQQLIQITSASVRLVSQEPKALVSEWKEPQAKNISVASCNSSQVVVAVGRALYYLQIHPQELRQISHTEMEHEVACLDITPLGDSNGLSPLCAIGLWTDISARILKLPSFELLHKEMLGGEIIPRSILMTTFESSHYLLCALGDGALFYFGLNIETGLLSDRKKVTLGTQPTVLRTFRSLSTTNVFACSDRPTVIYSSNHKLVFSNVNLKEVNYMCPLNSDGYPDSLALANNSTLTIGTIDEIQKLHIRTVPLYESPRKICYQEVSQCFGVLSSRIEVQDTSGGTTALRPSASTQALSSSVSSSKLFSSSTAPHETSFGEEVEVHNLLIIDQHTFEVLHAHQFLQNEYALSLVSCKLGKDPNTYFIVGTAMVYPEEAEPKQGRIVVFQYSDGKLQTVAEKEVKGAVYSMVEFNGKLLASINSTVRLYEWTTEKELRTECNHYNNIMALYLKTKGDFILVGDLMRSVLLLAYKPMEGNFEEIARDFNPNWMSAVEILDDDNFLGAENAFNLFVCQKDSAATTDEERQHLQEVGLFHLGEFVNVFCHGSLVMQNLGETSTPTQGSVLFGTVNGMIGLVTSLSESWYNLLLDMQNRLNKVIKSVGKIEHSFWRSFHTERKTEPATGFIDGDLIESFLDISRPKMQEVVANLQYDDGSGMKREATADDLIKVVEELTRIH
Method: For the PD experiment, NSG mice engrafted with MOLM-13 cells were treated for 48 h with SJ3149 or DMSO vehicle in 4 groups: vehicle, 50 mg/kg once per day, or vehicle or 50 mg/kg twice per day (Fig. 6). After 48 h, the mice were sacrificed and human cells were isolated from the collected bone marrow and lysed for western blot analysis.
(§1) For the xenograft transplantation study, female NSG mice (NOD.Cg-Prkdc^scid Il2rg^tm1Wjl/SzJ, Strain #005557, The Jackson Laboratory) aged 6–8 weeks were transplanted with 100,000 MOLM-13 cells by tail-vein injection. 10 days post-transplantation, mice were treated with SJ3149 via intraperitoneal injections for the following 2-day dosing schedule: 50 mg/kg (1 dose every 12 h), and 50 mg/kg (1 dose every 24 h) with n = 3 per group. Control groups (n = 3) were treated with DMSO either 1 dose every 24 h or 1 dose every 12 h with equal volume as treatment groups. Mice were euthanized 48 h after the first treatment and bone marrow cells were collected. Murine cells were depleted using the EasySep Mouse/Human Chimera isolation kit ([…] Technologies #19849). NSG mice were housed in microisolation cages and kept under barrier conditions to keep them specific pathogen-free. The lights for NSG mice are on an automated 12-h on, 12-h off light cycle. The mouse room has a separate thermostat and humidistat to control temperature and humidity at the room level. Sex was not considered beyond female mice being most commonly used for cell line-derived xenografts. Ethical approval by the St. Jude Institutional Animal Care and Use Committee.
as §1, with “Female” for “For the xenograft transplantation study, female”

O=C1CCC(N2Cc3cc(Nc4noc5ccccc45)ccc3C2=O)C(=O)N1 (stereo not drawn) [SJ3149]
Viability response of cells expressing CK1α G40N vs wild type CK1α ([1]; CTG 72 h): no longer sensitive to SJ3149; also recorded: reduced response
cell viability percentages, CK1a G40N ([1]; Concentration 0.000542): 79.1206% and 68.9136% and 86.2719% and 90.6755% and 74.2686% and 67.4931%
cell viability percentages, CK1a G40N ([1]; Concentration 0.001625): 77.8434% and 63.4222% and 59.9052% and 65.772% and 68.5727% and 55.5817%
cell viability percentages, CK1a G40N ([1]; Concentration 0.004875): 72.8442% and 62.075% and 50.1243% and 53.1953% and 62.3344% and 69.4392%
cell viability percentages, CK1a G40N ([1]; Concentration 0.014624): 59.4413% and 49.1388% and 62.3084% and 70.556% and 54.4032% and 55.8792%
cell viability percentages, CK1a G40N ([1]; Concentration 0.043872): 47.6849% and 48.0051% and 58.611% and 66.0269% and 52.3495% and 54.2867%
cell viability percentages, CK1a G40N ([1]; Concentration 0.131617): 56.3532% and 47.9219% and 49.9326% and 67.2267% and 57.1406% and 57.2358%
cell viability percentages, CK1a G40N ([1]; Concentration 0.394851): 51.3415% and 43.4521% and 48.9175% and 55.4224% and 56.3876% and 59.8672%
cell viability percentages, CK1a G40N ([1]; Concentration 1.18455): 47.8506% and 47.8436% and 44.0498% and 54.2517% and 50.6636% and 54.2115%
cell viability percentages, CK1a G40N ([1]; Concentration 3.55366): 37.4202% and 38.8791% and 44.5898% and 50.284% and 52.251% and 51.3543%
CK1a quantified western blot signal, group mean (Mean 2) (CK1α; 50 mg/kg 1x/day): 0.3507
CK1a quantified western blot signal, individual animals (CK1α; 50 mg/kg 1x/day): 0.2018 and 0.4461 and 0.4041
CK1a quantified western blot signal, group mean (Mean 2) (CK1α; 50 mg/kg 2x/day): 0.212
CK1a quantified western blot signal, individual animals (CK1α; 50 mg/kg 2x/day): 0.07248 and 0.5016 and 0.06191
CK1a quantified western blot signal, group mean (Mean 2) (CK1α; 100 mg/kg 1x/day): 0.4998
CK1a quantified western blot signal, individual animals (CK1α; 100 mg/kg 1x/day): 0.1574 and 0.8298 and 0.5123
CK1α protein level in vivo (CK1α; IP 50 mg/kg once per day): significant degradation of CK1α
CK1α protein level in vivo (CK1α; IP 50 mg/kg twice per day): significant degradation of CK1α
